Measured values as given in US20230167109A1, “Aminopiperidine Amides, Derivatives, Compositions, and Uses Related to CXCR4 Modulation” (Emory University, priority 2020, published 2023).

Key:
[1] = test system: carrageenan-induced paw edema; test: In vivo anti-inflammation study, carrageenan-induced mouse paw edema model; details: 10 mg/kg i.p., once a day; mice sacrificed 74 h after carrageenan; n=5
Protocol: Acute paw inflammation was induced by subcutaneous injection of 50 μL of λ-carrageenan in left hind paw. The mice in the treatment group were all administered Z7R at 10 mg/kg i.p., while control animals received corresponding i.p. injection of vehicle. Acute inflammation was induced by subcutaneous injection of […], of λ-carrageenan (1% w/v in saline) into the left hind paws of male nude mice (6 weeks, 20 g, Jackson Laboratory, Strain JAZ 007850 J:NU); the other hind paw was used as the non-inflammation control. The compounds were administered intraperitoneally (i.p. injection), 30 min after carrageenan challenge with the dose of 10 mg/kg using the formulation of 10% DMSO and 40% (2-hydroxypropyl)-β-cyclodextrin (CD) in PBS, and then once a day following the initial dose. The mice were sacrificed 74 h after inflammation was induced and 2 h after the last injection of the compounds. The hind paws of the mice were photographed, the thicknesses of the paws were measured by a caliper, and the weights of the paws were measured by a balance after transecting at the level of the malleoli. To quantify the edema, the measured values of the untreated group were subtracted from the treated group. The inflammation suppression percentage was calculated by comparing the compound-treated groups to the control group (n=5). Fixed paw tissue was sliced and stained with H&E for histology study.

[2] = test system: CXCR4-expressing infiltrating cells; test: Immunohistochemistry of paw tissue with anti-CXCR4 antibody; type: in vivo; details: paw tissue of Z7R-treated mouse vs inflamed tissue
Protocol: The avidin-biotin complex method was used to detect the proteins CXCR4 with anti-CXCR4 antibody (R&D System) at dilution 1:500. Formalin-fixed and paraffin-embedded tissues were deparaffinized and subsequently microwaved in 10 mM of sodium citrate buffer (pH 6.0) to retrieve antigens. After pre-incubation with hydrogen peroxide, avidin/biotin blocking kit (Invitrogen Co, CA), and horse serum (Vector Laboratories), the primary antibodies were applied overnight at 4° C. temperature. After incubation with the secondary antibody (rabbit anti-mouse biotinylated; Invitrogen Co, CA), the avidin-biotin complex was added and the enzyme activity was visualized with diaminobenzidine (ABC kit, Vector laboratories). Counterstaining was performed with hematoxylin.

[3] = molecular target: T1, CXCR4 (Homo sapiens, UniProt P61073); test: In vitro binding assay: blocking of CXCR4-targeted TN14003 conjugate on MDA-MB-231 cells
T1 construct: endogenous in cells; host or cells: MDA-MB-231
T1 sequence (P61073 whole entry): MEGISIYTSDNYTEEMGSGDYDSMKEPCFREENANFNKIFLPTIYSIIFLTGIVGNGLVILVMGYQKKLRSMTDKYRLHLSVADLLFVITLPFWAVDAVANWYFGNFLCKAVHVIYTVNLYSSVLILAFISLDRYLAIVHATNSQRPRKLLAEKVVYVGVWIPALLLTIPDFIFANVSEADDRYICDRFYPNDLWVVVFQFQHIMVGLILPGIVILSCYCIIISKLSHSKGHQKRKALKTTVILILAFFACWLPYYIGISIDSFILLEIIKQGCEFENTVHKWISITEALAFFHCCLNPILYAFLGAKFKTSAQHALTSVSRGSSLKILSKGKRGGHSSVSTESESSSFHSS
Protocol: (§1) EC (effective concentration) was calculated as the concentration at which the compound blocks >50% of CXCR4-targeted peptidomimetic conjugate (rhodamine Red X-TN14003). The inhibition % against the chemoattract, CXCL12 was determined by Matrigel invasion assay using 100 nM of compounds.
(§2) After computer evaluation of chemical libraries, seven compounds were tested by in vitro assays. The first binding assay quantified the affinity of compounds to the receptor by measuring the fluorescence of CXCR4-targeted peptidomimetic conjugate (rhodamine Red X-TN14003) after treating CXCR4-positive with each compound, which presents a lower fluorescent intensity for the compound with higher affinity. […] As a secondary orthogonal functional assay, Matrigel invasion assays were performed which measures the inhibitory efficacies of compounds against the chemotaxis between CXCR4-positive cells and the chemokine, CXCL12.
MDA-MB-231 cells were cultured in an eight-well slide chamber for two days. The cells were pre-incubated with the compounds for 15 min, and then fixed with 4% formaldehyde. […] Pictures were analyzed quantitatively with ImageJ. EC (effective concentration) is determined for the concentration at with the compound blocks >50% of CXCR4-targeted TN14003 conjugate using 1, 10, 100, and 1000 nM of compounds. […]

[4] = test system: MDA-MB-231 cells; test: In vitro Matrigel invasion assay (chemotaxis towards CXCL12); type: cell-based; details: Homo sapiens, compound at 100 nM, 200 ng/ml CXCL12 as chemoattractant, 22 h
Protocol: as §1, §2
Matrigel invasion chambers were used for invasion assays. MDA-MB-231 cells were cultured on a layer of Matrigel in the upper chamber with compounds at 100 nM, while 200 ng/ml of CXCL12 was added in the lower chamber as a chemoattractant. […] Invading cells at the bottom of the Matrigel were fixed in methanol and stained with H&E. The percentage of invading cells was determined by counting the H&E-stained cells.

SMILES: N=C(N)NCCCC(N)C(=O)NC1CCN(C(=O)CCn2ccc3ccncc32)CC1 (stereo not drawn) [Z7R, N-(1-(3-(pyrrolo[2,3-c]pyridin-1-yl)propanoyl)piperidin-4-yl)-2-amino-5-guanidinopentanamide]
- anti-inflammatory activity: reduction of edema (paw) weight vs untreated mice [1]: 50%
- CXCR4-expressing infiltrating cells in carrageenan-induced inflammatory tissue [2]: reduced presence of CXCR4s
- IC50 ([3]; fitted with GraphPad Prism 5, read-out: affinity IC50): 0.00125 µM
- inhibition at 0.1 µM [4]: 78.5%

SMILES: NC(C(=O)NC1CCN(C(=O)CCn2ccc3ccncc32)CC1)c1ccccc1 (stereo not drawn) [ZINC 72372983, N-(1-(3-(pyrrolo[2,3-c]pyridin-1-yl)propanoyl)piperidin-4-yl)-2-amino-2-phenylacetamide]
- EC50 ([3]; compounds tested at 1, 10, 100 and 1000 nM, read-out: binding affinity (EC, effective concentration: concentration at which the compound blocks more than 50% of rhodamine Red X-TN14003)): 0.1 µM
- inhibition at 0.1 µM [4]: 69%
